≈ marks a conversion by molar mass, not a printed value. Where a SMILES comes first, the peptide text is derived from it. [ ]: non-standard residue; d: D form. The star is where a group is joined. NHCH2CH2OH = OCCN*; For = O=C*
What was measured:
Escherichia coli = assay: Antimicrobial activity against Escherichia coli ATCC 25922 after 16 to 20 hrs by broth microdilution method; format: functional
[1] = Hemolytic activity against human erythrocytes at 20 to 140 uM after 30 mins; format: ADME, cell-based; details: erythrocyte, 0.5 h
Klebsiella pneumoniae = assay: Antimicrobial activity against Klebsiella pneumoniae ATCC 13883 after 16 to 20 hrs by broth microdilution method; format: functional
Proteus mirabilis = assay: Antimicrobial activity against Proteus mirabilis ATCC 7002 after 16 to 20 hrs by broth microdilution method; format: functional
Pseudomonas aeruginosa = assay: Antimicrobial activity against Pseudomonas aeruginosa ATCC 27853 after 16 to 20 hrs by broth microdilution method; format: functional
Streptococcus pneumoniae = assay: Antimicrobial activity against Streptococcus pneumoniae serotype 19A after 16 to 20 hrs by broth microdilution method; format: functional
Enterococcus faecalis = assay: Antimicrobial activity against Enterococcus faecalis ATCC 29212 after 16 to 20 hrs by broth microdilution method; format: functional
Enterococcus faecium = assay: Antimicrobial activity against Enterococcus faecium DSMZ 20477 after 16 to 20 hrs by broth microdilution method; format: functional
[2] = test system: Staphylococcus epidermidis; assay: Antimicrobial activity against Staphylococcus epidermidis PP62A after 16 to 20 hrs by broth microdilution method; format: functional
Plasmodium falciparum [3] = assay: Antimalarial activity against chloroquine-sensitive Plasmodium falciparum 3D7 after 72 hrs by NBT based LDH assay; format: functional; details: 3D7, 72 h
Plasmodium falciparum [4] = assay: Antimalarial activity against chloroquine-resistant Plasmodium falciparum Dd2 after 72 hrs by NBT based LDH assay; format: functional; details: Dd2, 72 h
Staphylococcus aureus = assay: Antimicrobial activity against methicillin-resistant Staphylococcus aureus ATCC 43300 after 16 to 20 hrs by broth microdilution method; format: functional
[5] = Induction of bulk conductivity in soybean asolectin planar lipid bilayers assessed as residual conductance of black lipid bilayer at 0.5 nM at pH 8
[6] = Induction of bulk conductivity in soybean asolectin planar lipid bilayers assessed as residual conductance of black lipid bilayer at 500 nM at pH 8
[7] = Induction of bulk conductivity in soybean asolectin planar lipid bilayers assessed as residual conductance of black lipid bilayer at 1 nM at pH 8
[8] = Induction of bulk conductivity in soybean asolectin planar lipid bilayers assessed as residual conductance of black lipid bilayer at 250 nM at pH 8

| Structure (SMILES) | MIC (Escherichia coli) | Activity [1] | MIC (Klebsiella pneumoniae) | MIC (Proteus mirabilis) | MIC (Pseudomonas aeruginosa) | MIC (Streptococcus pneumoniae) | MIC (Enterococcus faecalis) | MIC (Enterococcus faecium) | MIC [2] | IC50 (Plasmodium falciparum [3]) | IC50 (Plasmodium falciparum [4]) | MIC (Staphylococcus aureus) | Activity [5] | Activity [6] | Activity [7] | Activity [8] |
| --- | --- | --- | --- | --- | --- | --- | --- | --- | --- | --- | --- | --- | --- | --- | --- | --- |
| CC(C)C[C@@H](NC(=O)[C@H](C)NC(=O)CNC(=O)[C@@H](NC=O)C(C)C)C(=O)N[C@@H](C)C(=O)N[C@@H](C(=O)N[C@H](C(=O)N[C@@H](C(=O)N[C@@H](Cc1c[nH]c2ccccc12)C(=O)N[C@H](CC(C)C)C(=O)N[C@@H](Cc1c[nH]c2ccccc12)C(=O)N[C@H](CC(C)C)C(=O)N[C@@H](Cc1c[nH]c2ccccc12)C(=O)N[C@H](CC(C)C)C(=O)N[C@@H](Cc1c[nH]c2ccccc12)C(=O)NCCO)C(C)C)C(C)C)C(C)C (For-VGA[dL]A[dV]V[dV]W[dL]W[dL]W[dL]W-NHCH2CH2OH) | > 64 µg/mL | Toxic | > 64 µg/mL | > 64 µg/mL | > 64 µg/mL | 0.05 µg/mL (≈ 0.0266 µM) | 1 µg/mL (≈ 0.531 µM) | 2 µg/mL (≈ 1.06 µM) | 0.5 µg/mL (≈ 0.266 µM) | 0.05 nM | 0.014 nM | 64 µg/mL (≈ 34 µM) | > 50 uS |  |  |  |
| CC(C)C[C@@H](NC(=O)[C@H](C)NC(=O)CNC(=O)[C@@H](NC(=O)CCS)C(C)C)C(=O)N[C@@H](C)C(=O)N[C@@H](C(=O)N[C@H](C(=O)N[C@@H](C(=O)N[C@@H](Cc1c[nH]c2ccccc12)C(=O)N[C@H](CC(C)C)C(=O)N[C@@H](Cc1c[nH]c2ccccc12)C(=O)N[C@H](CC(C)C)C(=O)N[C@@H](Cc1c[nH]c2ccccc12)C(=O)N[C@H](CC(C)C)C(=O)N[C@@H](Cc1c[nH]c2ccccc12)C(=O)NCCS)C(C)C)C(C)C)C(C)C | > 64 µg/mL |  | > 64 µg/mL | > 64 µg/mL | > 64 µg/mL | > 64 µg/mL | > 64 µg/mL | > 64 µg/mL | > 64 µg/mL |  |  | > 64 µg/mL |  | 0.3 uS | < 0.3 uS |  |
| CC(C)C[C@@H](NC(=O)[C@H](C)NC(=O)CNC(=O)[C@@H](NC(=O)CCSSc1ccc([N+](=O)[O-])c(C(=O)O)c1)C(C)C)C(=O)N[C@@H](C)C(=O)N[C@@H](C(=O)N[C@H](C(=O)N[C@@H](C(=O)N[C@@H](Cc1c[nH]c2ccccc12)C(=O)N[C@H](CC(C)C)C(=O)N[C@@H](Cc1c[nH]c2ccccc12)C(=O)N[C@H](CC(C)C)C(=O)N[C@@H](Cc1c[nH]c2ccccc12)C(=O)N[C@H](CC(C)C)C(=O)N[C@@H](Cc1c[nH]c2ccccc12)C(=O)NCCO)C(C)C)C(C)C)C(C)C | > 64 µg/mL |  | > 64 µg/mL | > 64 µg/mL | > 64 µg/mL | > 64 µg/mL | 1 µg/mL (≈ 0.467 µM) | 0.5 µg/mL (≈ 0.234 µM) | 1 µg/mL (≈ 0.467 µM) |  |  | > 64 µg/mL |  | 115 uS | 0.2 uS |  |
| CC(C)C[C@H]1NC(=O)[C@H](C)NC(=O)CNC(=O)[C@H](C(C)C)NC(=O)CCSSCCC(=O)N[C@@H](C(C)C)C(=O)NCC(=O)N[C@@H](C)C(=O)N[C@H](CC(C)C)C(=O)N[C@@H](C)C(=O)N[C@H](C(C)C)C(=O)N[C@@H](C(C)C)C(=O)N[C@H](C(C)C)C(=O)N[C@@H](Cc2c[nH]c3ccccc23)C(=O)N[C@H](CC(C)C)C(=O)N[C@@H](Cc2c[nH]c3ccccc23)C(=O)N[C@H](CC(C)C)C(=O)N[C@@H](Cc2c[nH]c3ccccc23)C(=O)N[C@H](CC(C)C)C(=O)N[C@@H](Cc2c[nH]c3ccccc23)C(=O)NCCSSCCNC(=O)[C@H](Cc2c[nH]c3ccccc23)NC(=O)[C@@H](CC(C)C)NC(=O)[C@H](Cc2c[nH]c3ccccc23)NC(=O)[C@@H](CC(C)C)NC(=O)[C@H](Cc2c[nH]c3ccccc23)NC(=O)[C@@H](CC(C)C)NC(=O)[C@H](Cc2c[nH]c3ccccc23)NC(=O)[C@@H](C(C)C)NC(=O)[C@H](C(C)C)NC(=O)[C@@H](C(C)C)NC(=O)[C@H](C)NC1=O |  |  |  |  |  |  |  |  |  |  |  |  |  |  |  | < 0.3 uS |
| CC(=O)N[C@H](C(=O)NCC(=O)N[C@@H](C)C(=O)N[C@H](CC(C)C)C(=O)N[C@@H](C)C(=O)N[C@@H](C(=O)N[C@H](C(=O)N[C@@H](C(=O)N[C@@H](Cc1c[nH]c2ccccc12)C(=O)N[C@H](CC(C)C)C(=O)N[C@@H](Cc1c[nH]c2ccccc12)C(=O)N[C@H](CC(C)C)C(=O)N[C@@H](Cc1c[nH]c2ccccc12)C(=O)N[C@H](CC(C)C)C(=O)N[C@@H](Cc1c[nH]c2ccccc12)C(=O)NCCS)C(C)C)C(C)C)C(C)C)C(C)C | > 64 µg/mL |  | > 64 µg/mL | > 64 µg/mL | > 64 µg/mL | 0.05 µg/mL (≈ 0.0261 µM) | > 64 µg/mL | > 64 µg/mL | > 64 µg/mL | 5.5 nM | 8 nM | > 64 µg/mL | 1.9 uS | 93 uS |  |  |
| CC(C)C[C@H]1NC(=O)[C@H](C)NC(=O)CNC(=O)[C@H](C(C)C)NC(=O)CCSSCCNC(=O)[C@H](Cc2c[nH]c3ccccc23)NC(=O)[C@@H](CC(C)C)NC(=O)[C@H](Cc2c[nH]c3ccccc23)NC(=O)[C@@H](CC(C)C)NC(=O)[C@H](Cc2c[nH]c3ccccc23)NC(=O)[C@@H](CC(C)C)NC(=O)[C@H](Cc2c[nH]c3ccccc23)NC(=O)[C@@H](C(C)C)NC(=O)[C@H](C(C)C)NC(=O)[C@@H](C(C)C)NC(=O)[C@H](C)NC(=O)[C@@H](CC(C)C)NC(=O)[C@H](C)NC(=O)CNC(=O)[C@H](C(C)C)NC(=O)CCSSCCNC(=O)[C@H](Cc2c[nH]c3ccccc23)NC(=O)[C@@H](CC(C)C)NC(=O)[C@H](Cc2c[nH]c3ccccc23)NC(=O)[C@@H](CC(C)C)NC(=O)[C@H](Cc2c[nH]c3ccccc23)NC(=O)[C@@H](CC(C)C)NC(=O)[C@H](Cc2c[nH]c3ccccc23)NC(=O)[C@@H](C(C)C)NC(=O)[C@H](C(C)C)NC(=O)[C@@H](C(C)C)NC(=O)[C@H](C)NC1=O | > 64 µg/mL |  | > 64 µg/mL | > 64 µg/mL | > 64 µg/mL | > 64 µg/mL | > 64 µg/mL | > 64 µg/mL | > 64 µg/mL | 2.9 nM | 2.7 nM | > 64 µg/mL |  | < 0.3 uS |  |  |
| CC(C)C[C@@H](NC(=O)[C@H](C)NC(=O)CNC(=O)[C@@H](NC(=O)CCSSCCC(=O)N[C@H](C(=O)NCC(=O)N[C@@H](C)C(=O)N[C@H](CC(C)C)C(=O)N[C@@H](C)C(=O)N[C@@H](C(=O)N[C@H](C(=O)N[C@@H](C(=O)N[C@@H](Cc1c[nH]c2ccccc12)C(=O)N[C@H](CC(C)C)C(=O)N[C@@H](Cc1c[nH]c2ccccc12)C(=O)N[C@H](CC(C)C)C(=O)N[C@@H](Cc1c[nH]c2ccccc12)C(=O)N[C@H](CC(C)C)C(=O)N[C@@H](Cc1c[nH]c2ccccc12)C(=O)NCCO)C(C)C)C(C)C)C(C)C)C(C)C)C(C)C)C(=O)N[C@@H](C)C(=O)N[C@@H](C(=O)N[C@H](C(=O)N[C@@H](C(=O)N[C@@H](Cc1c[nH]c2ccccc12)C(=O)N[C@H](CC(C)C)C(=O)N[C@@H](Cc1c[nH]c2ccccc12)C(=O)N[C@H](CC(C)C)C(=O)N[C@@H](Cc1c[nH]c2ccccc12)C(=O)N[C@H](CC(C)C)C(=O)N[C@@H](Cc1c[nH]c2ccccc12)C(=O)NCCO)C(C)C)C(C)C)C(C)C | > 64 µg/mL | Non-Toxic |  |  |  |  |  |  |  | 31 nM | 26.5 nM |  | 0.4 uS |  |  | 66 uS |
| CC(C)C[C@@H](NC(=O)[C@H](C)NC(=O)CNC(=O)[C@@H](NC(=O)CCS)C(C)C)C(=O)N[C@@H](C)C(=O)N[C@@H](C(=O)N[C@H](C(=O)N[C@@H](C(=O)N[C@@H](Cc1c[nH]c2ccccc12)C(=O)N[C@H](CC(C)C)C(=O)N[C@@H](Cc1c[nH]c2ccccc12)C(=O)N[C@H](CC(C)C)C(=O)N[C@@H](Cc1c[nH]c2ccccc12)C(=O)N[C@H](CC(C)C)C(=O)N[C@@H](Cc1c[nH]c2ccccc12)C(=O)NCCO)C(C)C)C(C)C)C(C)C | > 64 µg/mL |  |  |  |  |  |  |  |  |  |  |  |  | 42 uS | 0.7 uS |  |
| CC[C@H]1OC(=O)[C@H](C)[C@@H](O[C@H]2C[C@@](C)(OC)[C@@H](O)[C@H](C)O2)[C@H](C)[C@@H](O[C@@H]2O[C@H](C)C[C@H](N(C)C)[C@H]2O)[C@](C)(O)C[C@@H](C)C(=O)[C@H](C)[C@@H](O)[C@]1(C)O [ERYTHROMYCIN] | > 32 µg/mL |  | > 64 µg/mL | > 64 µg/mL | > 64 µg/mL | > 64 µg/mL | 1 µg/mL (≈ 1.36 µM) | 2 to 4 µg/mL (≈ 2.73 to 5.45 µM) | > 64 µg/mL |  |  | 0.5 µg/mL (≈ 0.681 µM) |  |  |  |  |

From ChEMBL document CHEMBL3870335, “Bioactivity of topologically confined gramicidin A dimers” (Bioorg Med Chem, 2017)
